From patent publication US6303596A, “Use of taurolidine for treatment of leukemias” (priority 2000, dated 2001)

Assays:
Assay type in all cases: cell-based, human
MM6 cells = test: cell morphology / size (microscopy, flow cytometry FSC and SSC), MM6
Protocol: FIG. 12A, FIG. 12B, FIG. 12C, and FIG. 12D are flow cytometric analyses depicting changes in cell morphology following taurolidine treatment. MM6 and PBMC were treated for three hours with taurolidine, and then treated and untreated control cells were processed for flow cytometry. Monocytes in PBMC samples were identified by staining with FITC-conjugated anti-CD14, and lymphocytes by FITC-conjugated anti-CD3 and PE-conjugated anti-CD19. FIG. 12A represents untreated MM6 cells; FIG. 12B represents MM6 cells treated with 50 μg/ml taurolidine; FIG. 12C represents untreated PBMC; and FIG. 12D represents PBMC treated with 75 μg/ml taurolidine. M=monocytes; L=lymphocytes.
A Becton-Dickinson FACSCalibur instrument was used for flow cytometric analysis of cells. Assessment of cell diameter (forward scatter; FCS) and granularity (side scatter; SSC).was carried out on unfixed cells. Discrimination between lymphocytes and monocytes was made possible by their characteristic differences in FSC and SSC, and confirmed by staining monocytes with FITC-labeled anti-CD14 antibodies and lymphocytes with a combination of FITC-conjugated anti-CD3 and PE-conjugated anti-CD19. After incubation with taurolidine (with or without concomitant LPS treatment), cells were rinsed twice in phosphate-buffered saline containing 0.1% bovine serum albumin (PBSA) and 1×10^6 cells were resuspended in 0.1 ml PBSA. […]

GM5387 (fibroblasts) = test: trypan blue exclusion, GM5387; settings: GM5387, after taurolidine treatment
Protocol: FIGS. 11A and 11B depict cell viability and growth rates for GM5387 cell line following taurolidine treatment, in terms of % trypan blue negative cells and % cell number, respectively. Cells were treated with various concentrations of taurolidine for 4 hours in AIM-V+0.01% BCS. After aliquots were collected for LDH assay, the remainder of the culture was rinsed in HBSS and resuspended in RPMI+10% BCS without taurolidine. Counts of trypan blue-negative cells (FIG. 11A), and total cell number (FIG. 11B), were recorded daily thereafter (with the measurement at Day 1 being made immediately after the 4 hour taurolidine treatment). Conditions were: no treatment (open circles); 25 μg/ml taurolidine (closed circles); 50 μg/ml taurolidine (open squares); 100 μg/ml taurolidine (closed squares); and vehicle alone (closed triangles). Doubling times were determined under each condition, and expressed as a percentage of the rate of doubling of untreated cells. These values are located to the right of the growth curves in (FIG. 11B). […]
(§1) HL-60 cells treated with 50 μl taurolidine. In these samples, LDH present in the culture medium was 8.3±2.3% of that released by completely lysed cells, compared with 2.3±0.8% measured in control cultures. […] After 4 hour treatment, cells were rinsed and returned to growth medium and monitored for viability and growth over the following 3 days. […]

[1] = tested on: leukemia-derived cell lines; test: trypan blue exclusion, cell lines taken together
Protocol: In these experiments, integrity of cell membranes following taurolidine treatment was assessed by exclusion of trypan blue and by measuring the release of LDH in MM6, K-562, HL-60, and REH cells. Since BCS contains significant amounts of LDH, these experiments were conducted on cells cultured in AIM-V+0.01% BCS. Four hour treatment of cells was conducted in AIM-V containing 0.01% BCS in order to allow subsequent LDH assay without interference from BCS (which occurs in when normal culture medium, containing 10% BCS, is used). Thus, MM6 cells (5×10^5 cells/ml) were treated with taurolidine for four hours in AIM-V+0.01% BCS, after which an aliquot of the cell suspension was removed for measurement of LDH release. A parallel aliquot of cells was lysed by three cycles of freeze/thaw and the quantity of LDH released was taken to be 100%. Remaining cells were rinsed in HBSS and resuspended in growth medium for measurement of growth rates.
as §1

tissue factor (TF) = test: TF activity (coagulation) assay on LPS-induced PBMC treated in whole blood
Protocol: In order to determine if taurolidine would inhibit LPS-induced TF expression in PBMC in their native milieu, i.e., whole blood, a tissue factor activity assay was performed. LPS (10 ng/ml) and taurolidine (100-500 μg/ml) or equal dilutions of the taurolidine vehicle were added to 5 ml aliquots of heparinized blood, and the blood was incubated in 50 ml centrifuige tubes at 37° C., rotating on a horizontal rotator at 120 rpm. After 4 hours, PBMC were purified from the blood using Histopaque as described previously. Cells were lysed by 3 freeze-thaw cycles, and used as a source of TF in coagulation assays. For these assays, 50 μl of lysate (at 2×10^7 cells/ml) was added to 50 μl pooled normal human plasma, incubated for 30 seconds at 37° C., then 50 μl of 25 MM CaCl2 was added and clot formation assayed using a Diagnostica Stago ST4 coagulometer. Protein content of the cell samples was determined by bicinchoninic acid assay (Pierce Chemical Company, Rockford, Ill.), and used to normalize the clotting data. A standard curve was made with descyto TF reconstituted in PS/PC vesicles according to the method of Mimms et al. (Mimms, et al., "Phospholipid vesicle formation and transmembrane protein incorporation using octyl glucoside," Biochemistry 20:833-840 (1981)). One unit of TF was defined as that which caused clot formation at 50 seconds of incubation with CaCl2. The TF activity assays were performed on LPS-induced PBMC after 4 hour treatment in whole blood. A dose-response effect of taurolidine on monocyte TF is illustrated in Table II. […] Thus, higher concentrations of taurolidine were required to inhibit TF when the PBMC were treated with whole blood when compared to PBMC in culture medium. Further, lower concentrations of taurolidine were required to down-regulate TF expression than were needed to induce apoptosis as described below.
^a Heparinized blood was incubated in the presence of LPS and varying
amounts of taurolidine, then PBMC were purified, and coagulation assays
performed on cell lysates. Units of TF per mg protein were calculated as
described above, and data expressed as percentage of LPS-only ("control")
samples. Data shown are mean ± S.D. of two experiments.

**Q.** `O=S1(=O)CCN(CN2CCS(=O)(=O)NC2)CN1` [taurolidine, 4,4'-methylenebis(perhydro-1,2,4-thiadiazin 1,1-dioxide)] was tested. Which “cell size by microscopy” value (MM6 cells; MM6, 100 μg/ml taurolidine, 4 h) did it give?
**A.** Its value is “smaller than control cells”.

**Q.** And the “decrease in FSC” value (MM6 cells; MM6, taurolidine 3 h)?
**A.** The value was “approximately 30%”.

**Q.** And the “trypan blue staining during 4 day growth” value (GM5387 (fibroblasts))?
**A.** The value was “did not demonstrate a significant increase in trypan blue staining”.

**Q.** And the “trypan blue staining during 4 day growth” value (GM5387 (fibroblasts); listed as Taurolidine)?
**A.** Its value is “cells remained trypan blue negative”.

**Q.** What about the “trypan blue assay on Day 1” value ([1]; all samples, 25 to 100 μg/ml taurolidine, after 4 h treatment) of the same compound?
**A.** Its value is “equivalent to control”.

**Q.** And the “progressive permeability to trypan blue over following days” value ([1]; leukemia-derived cell lines except K562, taurolidine 50 μg/ml or greater)?
**A.** Its value is “permeability to trypan blue”.

**Q.** And the activity at 100 µg/mL (tissue factor (TF); Homo sapiens, PBMC, 100 μg/ml taurolidine, 4 h, mean ± S.D. of two experiments, read-out: coagulation activity of LPS-induced PBMC, % of control)?
**A.** The activity at 100 µg/mL was 87.7 ± 6.6%.

**Q.** What about the inhibition at 100 µg/mL (tissue factor (TF); Homo sapiens, PBMC, 100 μg/ml taurolidine, 4 h, read-out: decrease of TF activity) of the same compound?
**A.** Its inhibition at 100 µg/mL is 12%.

**Q.** And the activity at 200 µg/mL (tissue factor (TF); Homo sapiens, PBMC, 200 μg/ml taurolidine, 4 h, mean ± S.D. of two experiments, read-out: coagulation activity of LPS-induced PBMC, % of control)?
**A.** Its activity at 200 µg/mL is 41.7 ± 8%.

**Q.** What about the inhibition at 200 µg/mL (tissue factor (TF); Homo sapiens, PBMC, 200 μg/ml taurolidine, 4 h, read-out: decrease of TF activity) of the same compound?
**A.** The inhibition at 200 µg/mL was about 60%.

**Q.** What about the activity at 500 µg/mL (tissue factor (TF); Homo sapiens, PBMC, 500 μg/ml taurolidine, 4 h, mean ± S.D. of two experiments, read-out: coagulation activity of LPS-induced PBMC, % of control) of the same compound?
**A.** Its activity at 500 µg/mL is 26.5 ± 10.6%.

**Q.** What about the inhibition at 500 µg/mL (tissue factor (TF); Homo sapiens, PBMC, 500 μg/ml taurolidine, 4 h, read-out: loss of TF activity) of the same compound?
**A.** The inhibition at 500 µg/mL was about 75%.

**Q.** What about the “reduction of TF activity of LPS-induced monocytes” value (tissue factor (TF); taurolidine as low as 200 μg/ml) of the same compound?
**A.** The value was “significant reduction”.
